Test results from the supplement of paper PMC10307832.

Columns and labels:
Assay in all cases: relative viability (nuclei count vs DMSO), 5 days (fraction); higher = more cells survive
HCC-44 = tested on: HCC-44
In short: (§1)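 Medians of duplicate plates are given as relative viability. That measure is the nuclei count in treated wells divided by the count in vehicle wells. Counts were taken on 4× images of lung cancer cell lines in 1536-well plates, 5 days after pin-tool dosing the day after seeding with one drug alone or a fixed anchor-drug dose plus five library-drug doses (not always all listed) in √10 steps.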

COR-L23 = tested on: COR-L23
In short: as §1

NCI-H2023 = tested on: NCI-H2023
In short: as §1

NCI-H1944 = tested on: NCI-H1944
In short: as §1

NCI-H650 = tested on: NCI-H650
In short: as §1

ChaGo-K-1 = tested on: ChaGo-K-1
In short: as §1

NCI-H838 = tested on: NCI-H838
In short: as §1

NCI-H2087 = tested on: NCI-H2087
In short: as §1

NCI-H1651 = tested on: NCI-H1651
In short: as §1

EPLC-272H = tested on: EPLC-272H
In short: as §1

H3255 = tested on: H3255
In short: as §1

NCI-H2405 = tested on: NCI-H2405
In short: as §1

NCI-H1563 = tested on: NCI-H1563
In short: as §1

LCLC-103H = tested on: LCLC-103H
In short: as §1

HCC-827 = tested on: HCC-827
In short: as §1

EMC-BAC-2 = tested on: EMC-BAC-2
In short: as §1

NCI-H2085 = tested on: NCI-H2085
In short: as §1

NCI-H520 = tested on: NCI-H520
In short: as §1

SK-MES-1 = tested on: SK-MES-1
In short: as §1

LU99A = tested on: LU99A
In short: as §1

COc1cc2nccc(Oc3ccc(NC(=O)Nc4cc(C)on4)c(Cl)c3)c2cc1OC [Tivozanib] + C[C@@H](Oc1cc(-c2cnn(C3CCNCC3)c2)cnc1N)c1c(Cl)ccc(F)c1Cl [Crizotinib] (partner 1 µM)
relative viability (HCC-44; first compound 0.005 µM): 0.743
relative viability (HCC-44; first compound 0.01581 µM): 0.787
relative viability (HCC-44; first compound 0.05 µM): 0.82
relative viability (HCC-44; first compound 0.1581 µM): 0.78
relative viability (HCC-44; first compound 0.5 µM): 0.811
relative viability (COR-L23; first compound 0.005 µM): 0.622
relative viability (COR-L23; first compound 0.01581 µM): 0.615
relative viability (COR-L23; first compound 0.05 µM): 0.659
relative viability (COR-L23; first compound 0.1581 µM): 0.643
relative viability (COR-L23; first compound 0.5 µM): 0.543
relative viability (NCI-H2023; first compound 0.005 µM): 0.555
relative viability (NCI-H2023; first compound 0.01581 µM): 0.717
relative viability (NCI-H2023; first compound 0.05 µM): 0.657
relative viability (NCI-H2023; first compound 0.1581 µM): 0.645
relative viability (NCI-H2023; first compound 0.5 µM): 0.546
relative viability (NCI-H1944; first compound 0.005 µM): 1.13
relative viability (NCI-H1944; first compound 0.01581 µM): 1.05
relative viability (NCI-H1944; first compound 0.05 µM): 1.1
relative viability (NCI-H1944; first compound 0.1581 µM): 1.02
relative viability (NCI-H1944; first compound 0.5 µM): 1.28
relative viability (NCI-H650; first compound 0.005 µM): 0.596
relative viability (NCI-H650; first compound 0.01581 µM): 0.906
relative viability (NCI-H650; first compound 0.05 µM): 0.891
relative viability (NCI-H650; first compound 0.1581 µM): 0.696
relative viability (NCI-H650; first compound 0.5 µM): 0.455
relative viability (ChaGo-K-1; first compound 0.005 µM): 1.05
relative viability (ChaGo-K-1; first compound 0.01581 µM): 1.17
relative viability (ChaGo-K-1; first compound 0.05 µM): 1.19
relative viability (ChaGo-K-1; first compound 0.1581 µM): 1.17
relative viability (ChaGo-K-1; first compound 0.5 µM): 0.849
relative viability (NCI-H838; first compound 0.005 µM): 0.886
relative viability (NCI-H838; first compound 0.01581 µM): 0.82
relative viability (NCI-H838; first compound 0.05 µM): 0.857
relative viability (NCI-H838; first compound 0.5 µM): 0.779
relative viability (NCI-H2087; first compound 0.005 µM): 0.797
relative viability (NCI-H2087; first compound 0.01581 µM): 0.862
relative viability (NCI-H2087; first compound 0.05 µM): 0.882
relative viability (NCI-H2087; first compound 0.1581 µM): 0.917
relative viability (NCI-H2087; first compound 0.5 µM): 0.668
relative viability (NCI-H1651; first compound 0.005 µM): 0.896
relative viability (NCI-H1651; first compound 0.01581 µM): 0.91
relative viability (NCI-H1651; first compound 0.05 µM): 0.796
relative viability (NCI-H1651; first compound 0.1581 µM): 0.84
relative viability (NCI-H1651; first compound 0.5 µM): 0.92
relative viability (EPLC-272H; first compound 0.005 µM): 0.945
relative viability (EPLC-272H; first compound 0.01581 µM): 0.829
relative viability (EPLC-272H; first compound 0.05 µM): 0.937
relative viability (EPLC-272H; first compound 0.1581 µM): 0.718
relative viability (EPLC-272H; first compound 0.5 µM): 0.715
relative viability (H3255; first compound 0.005 µM): 0.799
relative viability (H3255; first compound 0.01581 µM): 0.906
relative viability (H3255; first compound 0.05 µM): 0.911
relative viability (H3255; first compound 0.1581 µM): 0.777
relative viability (H3255; first compound 0.5 µM): 0.8
relative viability (NCI-H2405; first compound 0.005 µM): 0.859
relative viability (NCI-H2405; first compound 0.01581 µM): 0.846
relative viability (NCI-H2405; first compound 0.05 µM): 0.933
relative viability (NCI-H2405; first compound 0.1581 µM): 0.903
relative viability (NCI-H2405; first compound 0.5 µM): 0.803
relative viability (NCI-H1563; first compound 0.005 µM): 0.811
relative viability (NCI-H1563; first compound 0.01581 µM): 0.857
relative viability (NCI-H1563; first compound 0.05 µM): 0.81
relative viability (NCI-H1563; first compound 0.1581 µM): 0.858
relative viability (NCI-H1563; first compound 0.5 µM): 0.919
relative viability (LCLC-103H; first compound 0.005 µM): 1.04
relative viability (LCLC-103H; first compound 0.01581 µM): 0.952
relative viability (LCLC-103H; first compound 0.05 µM): 1.04
relative viability (LCLC-103H; first compound 0.1581 µM): 1.03
relative viability (LCLC-103H; first compound 0.5 µM): 1.06
relative viability (HCC-827; first compound 0.005 µM): 0.956
relative viability (HCC-827; first compound 0.01581 µM): 0.928
relative viability (HCC-827; first compound 0.05 µM): 0.938
relative viability (HCC-827; first compound 0.1581 µM): 0.988
relative viability (HCC-827; first compound 0.5 µM): 0.866
relative viability (EMC-BAC-2; first compound 0.005 µM): 0.769
relative viability (EMC-BAC-2; first compound 0.01581 µM): 0.807
relative viability (EMC-BAC-2; first compound 0.05 µM): 0.74
relative viability (EMC-BAC-2; first compound 0.1581 µM): 0.754
relative viability (EMC-BAC-2; first compound 0.5 µM): 0.791
relative viability (NCI-H2085; first compound 0.005 µM): 0.699
relative viability (NCI-H2085; first compound 0.01581 µM): 0.87
relative viability (NCI-H2085; first compound 0.05 µM): 0.912
relative viability (NCI-H2085; first compound 0.1581 µM): 0.802
relative viability (NCI-H2085; first compound 0.5 µM): 0.814
relative viability (NCI-H520; first compound 0.005 µM): 0.822
relative viability (NCI-H520; first compound 0.01581 µM): 0.827
relative viability (NCI-H520; first compound 0.05 µM): 0.895
relative viability (NCI-H520; first compound 0.1581 µM): 0.713
relative viability (NCI-H520; first compound 0.5 µM): 0.603
relative viability (SK-MES-1; first compound 0.005 µM): 1.02
relative viability (SK-MES-1; first compound 0.01581 µM): 1.03
relative viability (SK-MES-1; first compound 0.05 µM): 1
relative viability (SK-MES-1; first compound 0.1581 µM): 0.995
relative viability (SK-MES-1; first compound 0.5 µM): 0.87
relative viability (LU99A; first compound 0.005 µM): 0.549
relative viability (LU99A; first compound 0.01581 µM): 0.537
relative viability (LU99A; first compound 0.05 µM): 0.555
relative viability (LU99A; first compound 0.5 µM): 0.482
